Literature values, collected in patent US9717795B2, “HPPH lyophilized powder injection for injection and preparation method thereof” (ZHEJIANG HISUN PHARMACEUTICAL CO., LTD, priority 2013, dated 2017).

solubility in water: poor solubility in water
Substance: HPPH
